Experimental data as given in patent publication US20250002918A1, “COMPOSITIONS AND METHODS FOR TREATMENT OF MIC60 DEPLETED CANCERS AND METASTASIS” (The Wistar Institute of Anatomy and Biology, priority 2021, published 2025).

Key:
[1] = tested on: PC3 cells transduced with pLKO or shMic60; assay: Tumor cell proliferation; type: cell-based; conditions: for suppression of proliferation, Mic60-depleted vs control transfectants: PC3 cells
[2] = tested on: PC3 cells stably transduced with pLKO or Mic60-directed shRNA (shMic60); assay: Small-molecule drug screening, cell viability (CellTiterGlo); conditions: drug screen, 72-h incubation, based on IC50 values (FIG. 4A, 4B)
Experimental: (§1) FIG. 4A-FIG. 4I show therapeutic vulnerability of GCN2/Akt signaling exposed by Mic60 depletion. (FIG. 4A and FIG. 4B) PC3 cells transduced with pLKO or shMic60 were analyzed in a high-throughput drug screening (FIG. 4A), and candidate compounds with differential tumor cell killing in shCtrl- or shMic60-transduced cultures (FIG. 4B) were analyzed based on IC50 values (nM). (FIG. 4C) PC3 cells transfected with siMic60 were analyzed for differential ISR gene expression by RNA-Seq. A representative experiment is shown. (FIG. 4D) PC3 cells transfected with siCtrl or siMic60 were analyzed by Western blotting. p, phosphorylated. (FIG. 4E) PC3 cells as in FIG. 4A and FIG. 4B were transfected with ATF4-mScarlet nuclear reporter gene and analyzed by flow cytometry in two independent experiments (Exp). The percentage of cells in gated regions is indicated. (FIG. 4F) Kaplan-Meier survival curves for differential expression of DDIT3 or ATF4 in Mic60-low GBM or pan-kidney cancer cohort comprising kidney chromophobe, kidney renal clear cell carcinoma, and kidney renal papillary cell carcinoma (KIPAN) in the Human Protein Atlas database. The number of patients per each condition and P values are indicated. (FIG. 4G) PC3 cells as in FIG. 4A and FIG. 4B were incubated with vehicle (Veh) or GCN2-IN-1 small-molecule inhibitor to GCN2 and analyzed for Annexin V/PI staining by multiparametric flow cytometry. The percentage of cells in each quadrant is indicated in a representative experiment (n=2). (FIG. 4H) PC3 cells were transfected with siCtrl or GCN2-directed siRNA (siGCN2) and analyzed by Western blotting. (FIG. 4I) PC3 cells were transfected with siCtrl or GCN2-directed siRNA (siGCN2) and analyzed for cell death by Trypan blue exclusion and light microscopy after 72 h. Mean±SD.
Cell viability screening against the MedChem Express anti-cancer library (1,820 compounds) was performed using CellTiterGlo (Promega). PC3 cells stably transduced with pLKO or Mic60-directed shRNA (shMic60) were maintained in complete media, trypsinized, and plated (500 cells/well) in 40 μL of complete medium the day before the experiment in white, clear-bottom 384-well plates. A total of 50 nL of test compound was added to each well using the Janus MDT Nanohead (Perkin-Elmer). Each compound was screened at a final concentration of 10, 1, 0.1, and 0.01 μM. After a 72-h incubation at 37° C. in the presence of 5% CO2, 20 μL of the CellTiterGlo reagent was added to each well. After 15 min, luminescence was measured using the Envision Multimode plate reader (PerkinElmer). The raw data were normalized to % inhibition, where 0% is the relative light units (RLU) in the presence of dimethylsulfoxide, and 100% is the RLU in the presence of 1 μM bortezomib. Estimated half maximal inhibitory concentration (IC50) values for each compound were determined using nonlinear regression fits on the data to a one-site binding model in XlFit (ID Business Solutions Ltd. [IDBS]). Because only 4 data points were used in this calculation, the top and bottom of the curve was fixed to 100% and 0%, respectively, with a constant slope value of 1.

[3] = tested on: Mic60-silenced tumor cells; assay: Focal adhesion (FA) dynamics after Mic60 silencing; type: cell-based
LN229 cells = assay: Single-cell motility by time-lapse videomicroscopy; type: cell-based; conditions: Mic60-silenced LN229 cells vs control transfectants
Experimental: (§2) Cells ([…]) were seeded in 4-well Ph+ Chambers (Ibidi) in complete growth medium and allowed to attach for 16 h at 37° C. Time-lapse videomicroscopy was performed over 10 h, with a time-lapse interval of 10 min. Stacks were imported into Image J Fiji software for analysis, and at least 10 to 20 cells per condition were tracked using the Manual Tracking plugin for Image J Fiji. Tracking data were exported into the Chemotaxis and Migration Tool v. 2.0 (Ibidi) for graphing and calculation of the mean and SD of speed and accumulated distance of movement. For directional cell migration, wounds were made in monolayers of PC3 cells using a 10-μL pipette tip. Cell debris were washed off, and cultures were maintained in complete growth medium containing 10% fetal bovine serum at 37° C. and 5% CO2. Time-lapse imaging of migrating cells was performed using a TE300 inverted microscope (Nikon) equipped with an incubator set at 37° C., 5% CO2, and 95% relative humidity. Each image was acquired using a 10× objective of the same fields at each 10-min interval for a total of 24 h.

PC3 cells = assay: Single-cell motility by time-lapse videomicroscopy; type: cell-based; conditions: Mic60-silenced PC3 cells vs control transfectants
Experimental: as §2

[4] = tested on: PC3 cells transduced with pLKO or shMic60; assay: Annexin V/PI staining by multiparametric flow cytometry; type: cell-based; conditions: preferentially in Mic60-silenced PC3 cells compared to control cultures (FIG. 4G)
Experimental: as §1, with “(FIG. 4F) Kaplan-Meier survival curves for differential expression of DDIT3 or ATF4 in Mic60-low GBM or pan-kidney cancer cohort comprising kidney chromophobe, kidney renal clear cell carcinoma, and kidney renal papillary cell carcinoma (KIPAN) in the Human Protein Atlas database. The number of patients per each condition and P values are indicated.” left out, “The percentage of cells in each quadrant is indicated in a representative experiment (n=2).” left out, “Mean±SD.” left out

[5] = tested on: PC3 cells transduced with pLKO or shMic60; assay: Caspase-dependent cell death; type: cell-based
Mic60-silenced cells = assay: Tumor cell invasion (Matrigel); type: cell-based; conditions: Mic60-silenced cells reconstituted with the scavenger
Experimental: FIG. 3A-FIG. 3G show Mic60 regulation of tumor cell motility and metastasis. (FIG. 3A) PC3 cells transduced with pLKO or shMic60 were analyzed for circularity (Top; 1=perfect sphere) and surface area (Bottom). Each symbol corresponds to an individual determination. Min to max values are indicated (pLKO, n=36; shMic60, n=39). *** P<0.0001 to 0.0009. (FIG. 3B) PC3 cells as in FIG. 3A were analyzed by Western blotting. (FIG. 3C) PC3 cells transduced with pLKO or shMic60 were analyzed for single-cell motility in 2D contour plots by time-lapse video microscopy. Each tracing corresponds to the movements of an individual cell (pLKO, n=90; shMic60, n=94). The average speed of cell movements (velocity [Vel], μm/min) and distance traveled (Dis; μm) are indicated. Mean±SD (n=3). P<0.0001. […] (FIG. 3D) PC3 cells as in FIG. 3A or WT or Mic60 KO PC3 cells were analyzed for invasion across Matrigel-coated inserts and quantified. […] (FIG. 3F) PC3 cells as in FIG. 3A were injected into the spleen of NSG mice, and liver samples harvested after 11 d were stained with hematoxylin/eosin, and the number (FIG. 3F, Top) and surface area (FIG. 3F, Bottom) of metastatic foci were quantified by morphometry. […] (FIG. 3G) Matched patient samples of LUAD representative of normal parenchyma (N), primary tumor (P), or metastasis (M) were analyzed for differential Mic60 expression by RT-PCR. […]

Structure (SMILES): O=c1[nH]c2ccccc2n1C1CCN(Cc2ccc(-c3nc4cc5[nH]cnc5cc4nc3-c3ccccc3)cc2)CC1 [Akt inhibitor VIII]
- suppression of proliferation, Mic60-depleted vs control transfectants [1]: suppressed proliferation selectively of Mic60-depleted PC3 cells
- differential tumor cell killing, Mic60-silenced vs control cultures [2]: killed Mic60-silenced PC3 cells more efficiently than control cultures

Structure (SMILES): CN(c1ncccc1CNc1nc(Nc2ccc3c(c2)CC(=O)N3)ncc1C(F)(F)F)S(C)(=O)=O [FAKi]
- FA dynamics [3]: normalized FA dynamics
- single-cell motility (LN229 cells): restored the single-cell motility of PC3 or LN229 cells to levels of control transfectants
- single-cell motility (PC3 cells): restored the single-cell motility of PC3 or LN229 cells to levels of control transfectants

Structure (SMILES): c1nn(C2CCOCC2)cc1Nc1ncc2nnn(-c3ccc4cn[nH]c4c3)c2n1 [GCN2-IN-1]
- Annexin V-associated apoptosis [4]: activated Annexin V-associated apoptosis
- caspase-dependent cell death ([5]; pLKO control PC3 cells): 8.4±6.3%
- caspase-dependent cell death ([5]; shMic60 PC3 cells, P=0.04 vs pLKO): 23.1±5.6%
- proliferation (cell number) with GCN2 inhibitor ([1]; pLKO control PC3 cells): 3.3×10^5±0.62×10^5 cells
- proliferation (cell number) with GCN2 inhibitor ([1]; shMic60 PC3 cells, P=0.009 vs pLKO): 1.95×10^5±0.4×10^5 cells
- differential tumor cell killing, Mic60-silenced vs control cultures [2]: killed Mic60-silenced PC3 cells more efficiently than control cultures

Structure (SMILES): NC1(c2ccc(-c3nc4ccn5c(=O)[nH]nc5c4cc3-c3ccccc3)cc2)CCC1 [MK2206]
- suppression of proliferation, Mic60-depleted vs control transfectants [1]: suppressed proliferation selectively of Mic60-depleted PC3 cells

Structure (SMILES): CC1(C)CC(NC(=O)C[P+](c2ccccc2)(c2ccccc2)c2ccccc2)CC(C)(C)N1[O] [MitoTempo]
- tumor cell invasion (Mic60-silenced cells): normalized tumor cell invasion to control levels

Structure (SMILES): C/C(=N\NC(=S)N1CCC1)c1ccccn1 [NSC319726]
- differential tumor cell killing, Mic60-silenced vs control cultures [2]: preferential killing against Mic60-low PC3 cells

Structure (SMILES): CS(=O)(=O)N1CCC(NC(=O)c2[nH]ncc2NC(=O)c2c(Cl)cccc2Cl)CC1 [NVP-LCQ195]
- differential tumor cell killing, Mic60-silenced vs control cultures [2]: preferential killing against Mic60-low PC3 cells

Structure (SMILES): CC1(C)CCC(c2ccc(Cl)cc2)=C(CN2CCN(c3ccc(C(=O)NS(=O)(=O)c4ccc(N[C@H](CCN5CCOCC5)CSc5ccccc5)c(S(=O)(=O)C(F)(F)F)c4)cc3)CC2)C1 [Navitoclax]
- differential tumor cell killing, Mic60-silenced vs control cultures [2]: preferential killing against Mic60-low PC3 cells

Structure (SMILES): C/C(=N\NC(=O)c1cccc(S(=O)(=O)N2CCOCC2)c1)c1cc(Cl)ccc1O [SP2509]
- differential tumor cell killing, Mic60-silenced vs control cultures [2]: preferential killing against Mic60-low PC3 cells

Structure (SMILES): COc1cc2c(cc1OC)CN(CCc1ccc(NC(=O)c3cc(OC)c(OC)cc3NC(=O)c3cnc4ccccc4c3)cc1)CC2 [Tariquidar]
- differential tumor cell killing, Mic60-silenced vs control cultures [2]: preferential killing against Mic60-low PC3 cells

Structure (SMILES): COc1cc(/C=C/C(=O)CC(=O)/C=C/c2ccc(O)c(OC)c2)ccc1O [curcumin]
- differential tumor cell killing, Mic60-silenced vs control cultures [2]: preferential killing against Mic60-low PC3 cells

Structure (SMILES): COc1cc([C@@H]2c3cc4c(cc3[C@H](O)[C@H]3COC(=O)[C@H]23)OCO4)cc(OC)c1OC [podophyllotoxin]
- differential tumor cell killing, Mic60-silenced vs control cultures [2]: preferential killing against Mic60-low PC3 cells
